These results are taken from US9675627B2, “Dosing regimens for treating and/or preventing cerebral amyloidoses” (Amicus Therapeutics, Inc., priority 2014, dated 2017).

Series [1] deals with Dutch APP^E693Q transgenic mice. As to the kind of experiment: Elevated plus maze (EPM). Format: in vivo. The settings on record: 3-month course, 3, 10, 30 or 100 mg/kg. As to the method: (§1) The generation and characterization of Dutch APPE693Q mice transgenic mice is described in Gandy, S., et al. Days to criterion as an indicator of toxicity associated with human Alzheimer amyloid-beta oligomers. Annals of neurology 68, 220-230 (2010). 3-month-old male Dutch APP^E693Q mice transgenic mice were orally gavaged 5 days/week with either vehicle (water) (n=15) or 3, 10, 30 or 100 mg/kg AdDNJ for 3 months (n=13). All animal studies were approved and conducted in accordance with the Institutional Animal Care and Usage Committee. Mice were kept in a pathogen-free environment, on a 12-hour light/dark cycle and given ad libitum access to food and water. At 6 month of age treatment groups, and a 3-month-old untreated baseline group (n=15), were cognitively assessed in the NOR, EPM and FC tests. 48 hours following the final dose mice were perfused with ice-cold 1×PBS. The brain was removed and dissected into two hemispheres. […]
The maze in the configuration of a+ and comprised two open arms (35×5×0 cm) across from each other and perpendicular to two closed arms (35×5×16 cm) with a central neutral zone (Stoelting, Wood Dale, Ill.). […] Each trial was videotaped overhead and scored for amount of time spent in the open and closed arms using ANY-maze (Stoelting, Wood Dale, Ill.). […]

For a further series, the system named is SH-SY5Y cells. As to the kind of experiment: Cell viability, tetrazolium-formazan conversion. The settings on record: concentrations as high as 1 mM, up to 120 hours. Format: cell-based, human. As to the method:
Viability of human fibroblast (CRL2076) and human neuroblastoma (SH-SY5Y) cells was tested after prolonged exposure to varying concentrations of AdDNJ. In a 96-well plate, fibroblasts were incubated in complete media containing increasing concentrations of AdDNJ up to 1 mM for either 72 or 120 hours at 37° C. in a humidified 8% CO2 incubator. Living cells were quantified using a tetrazoliuim-formazan conversion method according to the manufacturer's instructions (Promega Non-Radioactive 96-well Titer assay, TB112). SH-SY5Y cells were tested in the same manner as fibroblasts but plated in collagen-coated plates (Nunc #152036). After 24 hour, 48 hour and 120 hour exposure to AdDNJ, living SH-SY5Y cells were quantified as described above. All dosing concentrations were done in triplicate.

Series [2] deals with Dutch APP^E693Q transgenic mice. As to the kind of experiment: Novel object recognition (NOR). Format: in vivo. The conditions noted are these: 3-month course, higher doses (30 or 100 mg/kg). As to the method: as §1, with “hemispheres. One half was snap-frozen on dry ice and stored at −80° C. for biochemistry; the other half was post-fixed in 4% paraformaldehyde then sagittally sectioned on a vibratome into 30 μm sections and stored at 4° C. in storage buffer until histological analyses.” for “hemispheres.”
On day 1, the mouse was placed in the NOR arena (20 cm diameter) for 10 min to acclimatize. […] The duration spent exploring the objects was then measured using ANY-maze (Stoelting, Wood Dale, Ill.).

In another series the test system is Aβ. As to the kind of experiment: Aβ assay (ELISA of monomeric Aβ, dot blot of oligomers) in brain. The conditions noted are these: 3-month treatment, any dose tested. It is filed as in vivo, Dutch APP^E693Q transgenic mice. As to the method: The generation and characterization of Dutch APPE693Q mice transgenic mice is described in Gandy, S., et al. Days to criterion as an indicator of toxicity associated with human Alzheimer amyloid-beta oligomers. Annals of neurology 68, 220-230 (2010). 3-month-old male Dutch APP^E693Q mice transgenic mice were orally gavaged 5 days/week with either vehicle (water) (n=15) or 3, 10, 30 or 100 mg/kg AdDNJ for 3 months (n=13). All animal studies were approved and conducted in accordance with the Institutional Animal Care and Usage Committee. Mice were kept in a pathogen-free environment, on a 12-hour light/dark cycle and given ad libitum access to food and water. At 6 month of age treatment groups, and a 3-month-old untreated baseline group (n=15), were cognitively assessed in the NOR, EPM and FC tests. 48 hours following the final dose mice were perfused with ice-cold 1×PBS. The brain was removed and dissected into two hemispheres. One half was snap-frozen on dry ice and stored at −80° C. for biochemistry; the other half was post-fixed in 4% paraformaldehyde then sagittally sectioned on a vibratome into 30 μm sections and stored at 4° C. in storage buffer until histological analyses.
Right hemibrains were processed via differential detergent solubilizationin accordance with Kawarabayashi, T., et al. Age-dependent changes in brain, CSF, and plasma amyloid (beta) protein in the Tg2576 transgenic mouse model of Alzheimer's disease. J Neurosci 21, 372-381 (2001). For analysis of native oligomeric Aβ protein structure, 2-4 μL native protein samples from TBS-soluble were spotted onto activated/pre-wetted PVDF membrane (0.22 μm; Millipore) and allowed to dry. Following protein spotting, membranes were blocked for 1 h at room temperature in 5% w/v non-fat milk (Santa Cruz) in TBS containing 0.1% v/v Tween-20 (Fisher Scientific; TBS-T). Membranes were then incubated in the indicated primary antibody (in 5% milk/TBS-T) overnight at 4 C, washed 4× in TBS-T, incubated in species-specific HRP-conjugated secondary antibody (in 5% milk/TBS-T) for 1 h at room temperature, and then washed 4× in TBS-T. Membranes were subsequently developed with ECL Western blotting substrate (Pierce) using the Fujifilm LAS-3000 developer. Membranes were then washed 1× in TBS-T and stripped in low pH stripping buffer [25 mM Glycine HCl, pH 2.0 and 1% w/v SDS] with vigorous shaking to remove primary and secondary antibody, washed 3× in TBS-T, and blocked for 1 h (in 5% milk/TBS-T) at room temperature before probing with the next primary antibody. Integrated density of immunoreactive spots was measured using MultiGauge Software (FujiFilm) and normalized to % control (vehicle). Generation, purification, and characterization of rabbit pAβ A11 (anti-prefibrillar oligomers, 0.5 μg/ml), rabbit pAβ OC (anti-fibrillar oligomers and fibrils; 0.25 μg/ml) and mouse mAβ Nu-4 (anti-oligomers; 1 μg/ml) have been described previously (Tomic, J. L., Pensalfini, A., Head, E. & Glabe, C. G. Soluble fibrillar oligomer levels are elevated in Alzheimer's disease brain and correlate with cognitive dysfunction. Neurobiology of disease 35, 352-358 (2009); Lambert, M. P., et al. Monoclonal antibodies that target pathological assemblies of Abeta. Journal of neurochemistry 100, 23-35 (2007)). […] To quantify monomeric Aβ levels, human/rat Aβ 1-40/1-42 ELISA kits (Wako) were used according to the manufacturer's instructions. […]
On the technique in general: In an ELISA, binding on a coated surface is turned into a signal by an enzyme label.

In series [3] the test system is Dutch APP^E693Q transgenic mice. As to the kind of experiment: Contextual and cued fear conditioning. Format: in vivo. The conditions noted are these: 3-month course, 3-100 mg/kg. As to the method:
as §1
Contextual and cued fear conditioning was assessed using the ANY-Maze fear conditioning system (Stoelting Co., Wood Dale, Ill., USA) as previously described in Steele, J. W., et al. Early fear memory defects are associated with altered synaptic plasticity and molecular architecture in the TgCRND8 Alzheimer's disease mouse model. […]

For the compound `CC(=O)NC1CNC(CO)[C@@H](O)C1O` (stereo partly drawn) [AdDNJ, 2-acetamido-1,2-dideoxynojirimycin], the “anxiety in elevated plus maze” value in series [1] is “reduced anxiety at all doses tested”. For the same compound, the “effect on cell viability” value in the series with SH-SY5Y cells is listed as “little or no effect on cell viability”. Moreover, the “learning behavior in NOR test” value in series [2] is recorded as “protection from the typical aging-related learning behavior deficits”. Also, in the series with Aβ, the Aβ40 level entry is “no change”, the Aβ42/40 ratio result is recorded as “no change”, the Aβ42 level result is “no change” and the Aβ oligomer levels entry is “no change”. Further, the “prefibrillar Aβ” value in the series on Aβ is “no change”. In addition, in series [3], the “contextual or cued fear conditioning” value is reported as “no effect”.
